The values below come from patent publication US10745346B2, “Agonists of protein tyrosine phosphatase SHP-1” (priority 2015, dated 2020).

Where only a bound is given, the exact number is not on record here.

Assay [1] deals with Recombinant SHP-1 protein (Homo sapiens, UniProt P29350). Briefly: SHP-1 phosphatase activity assay (RediPlate 96 EnzChek Tyrosine Phosphatase Assay kit). It counts as biochemical. As to conditions: SC derivatives at 1 μM for 2 hr; recombinant SHP-1 25 ng; control DMSO = 100; mean±SD (N=3). The method, boiled down: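 Recombinant human SHP-1 (25 ng) was incubated for 2 h with compound at 1 μM, using a DMSO solvent control. Tyrosine phosphatase activity was then measured with the EnzChek kit by absorbance at 465 nm. Values are mean±SD, N=3.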
Recombinant SHP-1 protein, sequence (P29350 whole entry): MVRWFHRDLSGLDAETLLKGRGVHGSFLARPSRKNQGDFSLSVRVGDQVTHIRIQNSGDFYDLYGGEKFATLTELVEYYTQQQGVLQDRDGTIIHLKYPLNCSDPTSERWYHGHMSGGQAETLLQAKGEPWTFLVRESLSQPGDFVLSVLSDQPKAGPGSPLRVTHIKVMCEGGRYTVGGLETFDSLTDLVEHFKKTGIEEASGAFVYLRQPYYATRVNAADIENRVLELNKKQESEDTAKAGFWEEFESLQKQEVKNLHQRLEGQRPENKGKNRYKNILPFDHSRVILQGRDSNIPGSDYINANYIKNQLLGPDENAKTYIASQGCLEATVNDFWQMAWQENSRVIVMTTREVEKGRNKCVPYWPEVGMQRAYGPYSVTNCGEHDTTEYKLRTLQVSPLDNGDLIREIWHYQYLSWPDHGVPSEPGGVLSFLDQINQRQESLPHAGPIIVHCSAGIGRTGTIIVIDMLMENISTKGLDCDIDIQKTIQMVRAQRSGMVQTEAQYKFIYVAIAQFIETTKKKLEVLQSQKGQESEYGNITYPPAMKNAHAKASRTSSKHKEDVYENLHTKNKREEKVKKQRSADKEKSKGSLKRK

The test system of assay [2] is PLC5 cells (a hepatocellular carcinoma cell line). Briefly: Cytotoxicity, MTT cell viability assay. It counts as cell-based. Conditions: 72 h exposure. As to the method: PLC5 cells (a hepatocellular carcinoma cell line) were seeded at 5×10^3 cells per well in 96-well plates. Then, cells were exposed to SC derivatives at the indicated doses for 72 h. After that, cells were incubated with MTT (1 mg/ml) (Sigma-Aldrich, St. Louis, Mo.) for 2 h at 37° C. Cell viability was then assessed by measuring the absorbance at 570 nm using a microplate reader.
A general note: Formazan colour is commonly taken as a measure of viable cells.

In the case of `N#Cc1ccc(Oc2cccc(NC(=O)C3(C(=O)Nc4cccc(Oc5ccc(C#N)cc5)c4)CC3)c2)cc1` [compound 67, N, N′-bis(3-(4-cyanophenoxy)phenyl)cyclopropane-1,1-dicarboxamide], the “SHP-1 Activity (% of control)” value in assay [1] is given as 94.05 ± 16.11 % of control. In assay [2], this compound came in with an IC50 greater than 10 µM.
As to `N#Cc1ccc(Oc2ccc3c(c2)OCCN3C(=O)Nc2cccc(C(F)(F)F)c2)cc1` [compound 163, 7-(4-cyanophenoxy)-N-(3-(trifluoromethyl)phenyl)-2H-benzo[b][1,4]oxazine-4(3H)-carboxamide], the “SHP-1 Activity (% of control)” value in assay [1] was 142.36 ± 2.16 % of control. It took 2.51 µM to reach half-maximal inhibition in assay [2] (IC50).
As for `N#Cc1ccc(Oc2ccc(Cl)c(NC(=O)Nc3ccc(F)c(C(F)(F)F)c3)c2)cc1` [compound 143, 1-(2-chloro-5-(4-cyanophenoxy)phenyl)-3-(4-fluoro-3-(trifluoromethyl)phenyl)urea], the “SHP-1 Activity (% of control)” value in assay [1] is on record as 198.37 ± 32.5 % of control. For the same compound, in assay [2], the half-inhibitory concentration (IC50) was 0.61 µM.
In the same order, the values of `Cc1cc(Oc2cc(NC(=O)Nc3ccc(F)c(C(F)(F)F)c3)ccc2Cl)ccc1C#N` [compound 177, 1-(4-chloro-3-(4-cyano-3-methylphenoxy)phenyl)-3-(4-fluoro-3-(trifluoromethyl)phenyl)urea] are 103.52 ± 1.13 % of control and greater than 10 µM.
With `Cc1ccc(NC(=O)Nc2ccc(C)c(Oc3ccc(C#N)c(F)c3)c2)cc1Oc1ccc(C#N)c(F)c1` [compound 84, 1,3-bis(3-(4-cyano-3-fluorophenoxy)-4-methylphenyl)urea], the “SHP-1 Activity (% of control)” value in assay [1] is on record as 108.62 ± 10.55 % of control. Moreover, the half-inhibitory concentration (IC50) in assay [2] was greater than 10 µM.
Turning to `N#Cc1ccc(Oc2cc(NC(=O)Nc3ccc(F)c(C(F)(F)F)c3)ccc2Cl)cc1` [compound 137, 1-(4-chloro-3-(4-cyanophenoxy)phenyl)-3-(4-fluoro-3-(trifluoromethyl)phenyl)urea], the “SHP-1 Activity (% of control)” value in assay [1] is listed as 180.35 ± 35 % of control. This compound also had an IC50 in assay [2] of 0.49 µM.
The corresponding values for `Cc1ccc(NC(=O)Nc2cc(Oc3ccc(C#N)cc3)ccc2F)cc1Oc1ccc(C#N)nc1` [compound 110, 1-(5-(4-cyanophenoxy)-2-fluorophenyl)-3-(3-((6-cyanopyridin-3-yl)oxy)-4-methylphenyl)urea] are 146.29 ± 12.80 % of control and 7.65 µM.
Regarding `N#Cc1ccc(Oc2ccc(Cl)c(NC(=O)Nc3ccc(Cl)c(C(F)(F)F)c3)c2)cc1` [compound 142, 1-(4-chloro-3-(trifluoromethyl)phenyl)-3-(2-chloro-5-(4-cyanophenoxy)phenyl)urea], in assay [1], the “SHP-1 Activity (% of control)” value was 249.66 ± 5.81 % of control. In addition, the IC50 in assay [2] amounted to 0.45 µM.
For `N#Cc1ccc(Oc2cccc(NC(=O)C(=O)Nc3ccc(Cl)c(C(F)(F)F)c3)c2)cc1` [compound 69, N^1-(4-chloro-3-(trifluoromethyl)phenyl)-N^2-(3-(4-cyanophenoxy)phenyl) oxalamide], the “SHP-1 Activity (% of control)” value in assay [1] is recorded as 95.16 ± 6.91 % of control. Besides, in assay [2], the IC50 was greater than 10 µM.

For orientation: IC50 means the point on the concentration scale where inhibition reaches its midpoint. A lower IC50 goes with higher potency.
